Key:
Format in all cases: in vivo
[1] = tested on: velvetleaf (Abutilon theophrasti); experiment: Test A pre-/postemergence plant response
In short: (§1)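 Both pre- and postemergence treatment given concurrently; postemergence seedlings measured 2–10 cm at the one- to two-leaf stage. Visual injury, 0–100 scale versus untreated, at ~10 days.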

[2] = tested on: wheat (Triticum aestivum); experiment: Test A pre-/postemergence plant response
In short: as §1

[3] = tested on: barnyardgrass (Echinochloa crus-galli); experiment: Test A pre-/postemergence plant response
In short: as §1

[4] = tested on: large crabgrass (Digitaria sanguinalis); experiment: Test A pre-/postemergence plant response
In short: as §1

[5] = tested on: pigweed (Amaranthus retroflexus); experiment: Test A pre-/postemergence plant response
In short: as §1

[6] = tested on: morningglory (Ipomoea coccinea); experiment: Test A pre-/postemergence plant response
In short: as §1

[7] = tested on: windgrass (Apera spica-venti); experiment: Test B postemergence plant response; settings: for Windgrass plant response rating: 8 g ai/ha, postemergence, 0-100 scale; for Plant response rating, Windgrass: Postemergence
In short: (§2)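 Compounds applied after emergence to 2–18 cm plants; response read visually 13–15 days later on 0 (none) to 100 (complete control); a dash marks no result.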

[8] = tested on: winter barley (Hordeum vulgare); experiment: Test B postemergence plant response; settings: for Barley plant response rating: 8 g ai/ha, postemergence, 0-100 scale; for Plant response rating, Barley: Postemergence, scale 0 to 100, 0 no effect, 100 complete control
In short: as §2

[9] = tested on: canarygrass (Phalaris minor); experiment: Test B postemergence plant response; settings: for Canarygrass plant response rating: 8 g ai/ha, postemergence, 0-100 scale; for Plant response rating, Canarygrass: Postemergence
In short: as §2

[10] = tested on: chickweed (Stellaria media); experiment: Test B postemergence plant response; settings: for Chickweed plant response rating: 8 g ai/ha, postemergence, 0-100 scale; for Plant response rating, Chickweed: Postemergence
In short: as §2

rice (Oryza sativa) = experiment: Test B flooded paddy test plant response
In short: (§3)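 Step one: raise plants to 2 leaves. Step two: flood pots 3 cm over the soil and apply compound into the water, keeping this depth. Step three: after 13–15 greenhouse days, score visually versus controls, 0–100, where 100 means complete control.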

[11] = tested on: barnyardgrass (Echinochloa crus-galli); experiment: Test B flooded paddy test plant response
In short: as §3

[12] = tested on: ducksalad (Heteranthera limosa); experiment: Test B flooded paddy test plant response
In short: as §3

[13] = tested on: umbrella sedge (Cyperus difformis); experiment: Test B flooded paddy test plant response
In short: as §3

[14] = Postemergence, 31 g ai/ha, 0 to 100 scale, 0 no effect, 100 complete control
[15] = Postemergence, 125 g ai/ha, 0 to 100 scale, 0 no effect, 100 complete control
[16] = Preemergence, 31 g ai/ha, 0 to 100 scale, 0 is no effect, 100 is complete control
[17] = Preemergence, 125 g ai/ha, 0 to 100 scale (0 no effect, 100 complete control)
[18] = 62 g ai/ha, scale 0 to 100, 0 no effect, 100 complete control
[19] = 31 g ai/ha, scale 0 to 100, 0 no effect, 100 complete control
[20] = Flood (flooded paddy test), 62 g ai/ha, scale 0 to 100, 0 no effect, 100 complete control
[21] = Flood (flooded paddy test), 125 g ai/ha, scale 0 to 100, 0 no effect, 100 complete control
[22] = Flood (flooded paddy test), 250 g ai/ha, scale 0 to 100, 0 no effect, 100 complete control
[23] = Flood, 31 g ai/ha, scale 0 to 100

Cc1cc(-c2ccc(C(F)(F)F)c(F)c2)nn1-c1c(O)c(C(F)(F)F)nn(C)c1=O [Compound 44]
80: Plant response rating, Wheat [2, 15] | Plant response rating, Wheat [2, 17] | Plant response rating, Barnyardgrass [3, 16]
90: Plant response rating, Canarygrass ([9]; 16 g ai/ha, scale 0 to 100) | Plant response rating, Canarygrass [9, 19]
15: Barley plant response rating [8] | Plant response rating, Rice (rice (Oryza sativa); [20])
70: Plant response rating, Wheat [2, 14] | Plant response rating, Ducksalad [12, 21] | Plant response rating, Ducksalad [12, 22]
50: Plant response rating, Crabgrass, Large [4, 14] | Canarygrass plant response rating [9] | Plant response rating, Barnyardgrass [11, 22]
20: Plant response rating, Crabgrass, Large [4, 16] | Plant response rating, Barley ([8]; 16 g ai/ha) | Plant response rating, Barley ([8]; 31 g ai/ha) | Plant response rating, Barley ([8]; 62 g ai/ha) | Plant response rating, Rice (rice (Oryza sativa); [21]) | Plant response rating, Sedge, Umbrella [13, 21]
30: Plant response rating, Barnyardgrass [11, 21] | Plant response rating, Sedge, Umbrella [13, 22]
0: Plant response rating, Velvetleaf [1, 14] | Plant response rating, Velvetleaf [1, 15] | Plant response rating, Velvetleaf [1, 16] | Plant response rating, Velvetleaf [1, 17] | Plant response rating, Pigweed [5, 14] | Plant response rating, Pigweed [5, 15] | Plant response rating, Pigweed [5, 16] | Plant response rating, Pigweed [5, 17] | Plant response rating, Morningglory [6, 14] | Plant response rating, Morningglory [6, 15] | Plant response rating, Morningglory [6, 16] | Plant response rating, Morningglory [6, 17] | Chickweed plant response rating [10] | Plant response rating, Chickweed ([10]; 16 g ai/ha, scale 0 to 100) | Plant response rating, Chickweed [10, 19] | Plant response rating, Chickweed [10, 18] | Plant response rating, Rice (rice (Oryza sativa); [23]) | Plant response rating, Barnyardgrass [11, 20] | Plant response rating, Barnyardgrass [11, 23] | Plant response rating, Ducksalad [12, 20] | Plant response rating, Sedge, Umbrella [13, 20] | Plant response rating, Sedge, Umbrella [13, 23]
40: Plant response rating, Wheat [2, 16] | Plant response rating, Rice (rice (Oryza sativa); [22])
100: Plant response rating, Barnyardgrass [3, 14] | Plant response rating, Barnyardgrass [3, 15] | Plant response rating, Barnyardgrass [3, 17] | Plant response rating, Crabgrass, Large [4, 15] | Plant response rating, Crabgrass, Large [4, 17] | Plant response rating, Windgrass [7, 18]
85: Windgrass plant response rating [7] | Plant response rating, Windgrass ([7]; 16 g ai/ha, scale 0 to 100)

Cn1ncc(O)c(-n2nc(-c3ccc(Cl)cc3)cc2C2CC2)c1=O [Compound 45]
35: Plant response rating, Windgrass ([7]; 16 g ai/ha, scale 0 to 100)
5: Barley plant response rating [8] | Plant response rating, Barley ([8]; 16 g ai/ha) | Plant response rating, Barley ([8]; 31 g ai/ha) | Plant response rating, Barley ([8]; 62 g ai/ha)
70: Plant response rating, Wheat [2, 14]
20: Plant response rating, Barnyardgrass [11, 20] | Plant response rating, Barnyardgrass [11, 23]
45: Plant response rating, Rice (rice (Oryza sativa); [21]) | Plant response rating, Rice (rice (Oryza sativa); [22])
90: Plant response rating, Wheat [2, 15] | Plant response rating, Barnyardgrass [3, 16] | Plant response rating, Crabgrass, Large [4, 17]
50: Plant response rating, Wheat [2, 16]
40: Plant response rating, Crabgrass, Large [4, 14]
80: Plant response rating, Wheat [2, 17] | Plant response rating, Barnyardgrass [3, 14]
65: Plant response rating, Windgrass [7, 18] | Plant response rating, Barnyardgrass [11, 22] | Plant response rating, Sedge, Umbrella [13, 22]
60: Plant response rating, Windgrass ([7]; 31 g ai/ha, scale 0 to 100) | Plant response rating, Barnyardgrass [11, 21]
0: Plant response rating, Velvetleaf [1, 14] | Plant response rating, Velvetleaf [1, 15] | Plant response rating, Velvetleaf [1, 16] | Plant response rating, Velvetleaf [1, 17] | Plant response rating, Pigweed [5, 14] | Plant response rating, Pigweed [5, 15] | Plant response rating, Pigweed [5, 16] | Plant response rating, Pigweed [5, 17] | Plant response rating, Morningglory [6, 14] | Plant response rating, Morningglory [6, 15] | Plant response rating, Morningglory [6, 16] | Plant response rating, Morningglory [6, 17] | Canarygrass plant response rating [9] | Plant response rating, Canarygrass ([9]; 16 g ai/ha, scale 0 to 100) | Plant response rating, Canarygrass ([9]; 31 g ai/ha, scale 0 to 100) | Plant response rating, Canarygrass [9, 18] | Chickweed plant response rating [10] | Plant response rating, Chickweed ([10]; 16 g ai/ha, scale 0 to 100) | Plant response rating, Chickweed ([10]; 31 g ai/ha, scale 0 to 100) | Plant response rating, Chickweed [10, 18] | Plant response rating, Rice (rice (Oryza sativa); [20]) | Plant response rating, Rice (rice (Oryza sativa); [23]) | Plant response rating, Ducksalad [12, 20] | Plant response rating, Ducksalad [12, 21] | Plant response rating, Ducksalad [12, 23] | Plant response rating, Sedge, Umbrella [13, 20] | Plant response rating, Sedge, Umbrella [13, 21] | Plant response rating, Sedge, Umbrella [13, 23]
75: Plant response rating, Ducksalad [12, 22]
30: Plant response rating, Crabgrass, Large [4, 16] | Windgrass plant response rating [7]
100: Plant response rating, Barnyardgrass [3, 15] | Plant response rating, Barnyardgrass [3, 17] | Plant response rating, Crabgrass, Large [4, 15]

Cc1cc(-c2ccc(Cl)cc2)nn1-c1c(OC(=O)c2cccs2)cnn(C)c1=O [Compound 52]
20: Plant response rating, Velvetleaf [1, 15] | Plant response rating, Morningglory [6, 17]
100: Plant response rating, Barnyardgrass [3, 15] | Plant response rating, Barnyardgrass [3, 17] | Plant response rating, Crabgrass, Large [4, 17]
60: Plant response rating, Wheat [2, 15] | Plant response rating, Crabgrass, Large [4, 14] | Plant response rating, Windgrass ([7]; 31 g ai/ha, scale 0 to 100) | Plant response rating, Rice (rice (Oryza sativa); [22])
75: Plant response rating, Barnyardgrass [11, 22]
30: Plant response rating, Wheat [2, 14] | Plant response rating, Crabgrass, Large [4, 16]
5: Plant response rating, Canarygrass [9, 18]
80: Plant response rating, Wheat [2, 17] | Plant response rating, Barnyardgrass [3, 14] | Plant response rating, Windgrass [7, 18]
90: Plant response rating, Crabgrass, Large [4, 15]
10: Plant response rating, Wheat [2, 16] | Plant response rating, Rice (rice (Oryza sativa); [20])
70: Plant response rating, Barnyardgrass [3, 16]
0: Plant response rating, Velvetleaf [1, 14] | Plant response rating, Velvetleaf [1, 17] | Plant response rating, Pigweed [5, 14] | Plant response rating, Pigweed [5, 15] | Plant response rating, Pigweed [5, 16] | Plant response rating, Pigweed [5, 17] | Plant response rating, Morningglory [6, 14] | Plant response rating, Morningglory [6, 15] | Plant response rating, Morningglory [6, 16] | Windgrass plant response rating [7] | Plant response rating, Windgrass ([7]; 16 g ai/ha, scale 0 to 100) | Barley plant response rating [8] | Plant response rating, Barley ([8]; 16 g ai/ha) | Plant response rating, Barley ([8]; 31 g ai/ha) | Plant response rating, Barley ([8]; 62 g ai/ha) | Canarygrass plant response rating [9] | Plant response rating, Canarygrass ([9]; 16 g ai/ha, scale 0 to 100) | Plant response rating, Canarygrass ([9]; 31 g ai/ha, scale 0 to 100) | Chickweed plant response rating [10] | Plant response rating, Chickweed ([10]; 16 g ai/ha, scale 0 to 100) | Plant response rating, Chickweed ([10]; 31 g ai/ha, scale 0 to 100) | Plant response rating, Chickweed [10, 18] | Plant response rating, Ducksalad [12, 20] | Plant response rating, Ducksalad [12, 22] | Plant response rating, Sedge, Umbrella [13, 20] | Plant response rating, Sedge, Umbrella [13, 22]
15: Plant response rating, Barnyardgrass [11, 20]
